Results taken from patent US5968817A, “DNA encoding serotonin receptors” (priority 1993, dated 1999).
Read-outs that look alike come from different tables or passages of the source.

How the values were obtained:
[1] = system: suprachiasmatic nucleus (SCN) neuronal activity; assay: Effects of serotonergic agents on circadian rhythm of neuronal activity in suprachiasmatic nucleus slices; settings: for effect of antagonist on the 8-OH-DPAT-dependent phase shift: antagonist 15 min before, during and 15 min after 1 hour 8-OH-DPAT
Experimental: This was followed by the normal perfusion medium. Horizontal bars: time of lights-off in donor colony; vertical bars: time of treatment; dotted line: mean time of peak in untreated slices.
The effects of serotinergic agents on the neuronal activity as measured against circadian time in the suprachiasmatic nucleus (SCN) were measured. […] This was followed by the normal perfusion medium.

[2] = molecular target: T1, REC20 serotonin receptor (5-HT6) (Rattus norvegicus, UniProt P32305); assay: [125I]-LSD competition binding to membranes of CosM6 cells expressing REC20
T1 construct: encodes a putative protein of 435 amino acids; expressed in transfected cells; host or cells: CosM6 (subclone of COS-7), transient, vector pCMV4
T1 sequence (P32305 1-435): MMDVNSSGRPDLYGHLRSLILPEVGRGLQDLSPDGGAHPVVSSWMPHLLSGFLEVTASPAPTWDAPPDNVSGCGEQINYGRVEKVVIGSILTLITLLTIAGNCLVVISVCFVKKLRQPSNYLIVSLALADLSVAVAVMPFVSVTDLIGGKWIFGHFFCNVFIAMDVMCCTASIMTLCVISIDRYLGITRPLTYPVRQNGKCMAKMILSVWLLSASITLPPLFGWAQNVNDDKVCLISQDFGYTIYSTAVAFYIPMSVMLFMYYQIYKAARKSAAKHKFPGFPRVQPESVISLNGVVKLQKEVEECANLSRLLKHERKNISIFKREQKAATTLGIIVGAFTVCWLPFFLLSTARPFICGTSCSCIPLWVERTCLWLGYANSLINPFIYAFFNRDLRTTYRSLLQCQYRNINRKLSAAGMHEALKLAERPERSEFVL

[3] = molecular target: T2, MR22 serotonin receptor (5-HT5β) (Rattus norvegicus, UniProt P35365); assay: [125I]-LSD competition binding to membranes of CosM6 cells expressing MR22
T2 construct: contains an open reading frame (ORF) encoding 370 amino acids; expressed in transfected cells; host or cells: CosM6 (subclone of COS-7), transient, vector pCMV4
T2 sequence (P35365 whole entry S4C/P322A): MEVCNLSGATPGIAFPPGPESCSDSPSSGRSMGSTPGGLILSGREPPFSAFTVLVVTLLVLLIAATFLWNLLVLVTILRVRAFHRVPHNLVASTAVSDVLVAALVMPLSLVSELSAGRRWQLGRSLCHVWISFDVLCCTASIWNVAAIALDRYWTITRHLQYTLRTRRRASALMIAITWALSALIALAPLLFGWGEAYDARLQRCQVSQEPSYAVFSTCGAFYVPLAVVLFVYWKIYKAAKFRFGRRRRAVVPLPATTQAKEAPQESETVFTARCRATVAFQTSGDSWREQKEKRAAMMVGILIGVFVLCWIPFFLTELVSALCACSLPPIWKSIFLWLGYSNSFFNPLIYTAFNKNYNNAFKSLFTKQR

[4] = molecular target: T3, MR77 serotonin receptor (5-HT1E-Like) (Rattus norvegicus, UniProt P30940); assay: [125I]-LSD competition binding to membranes of CosM6 cells expressing MR77
T3 construct: expressed in transfected cells; host or cells: CosM6 (subclone of COS-7), transient, vector pCMV4
T3 sequence (P30940 1-366): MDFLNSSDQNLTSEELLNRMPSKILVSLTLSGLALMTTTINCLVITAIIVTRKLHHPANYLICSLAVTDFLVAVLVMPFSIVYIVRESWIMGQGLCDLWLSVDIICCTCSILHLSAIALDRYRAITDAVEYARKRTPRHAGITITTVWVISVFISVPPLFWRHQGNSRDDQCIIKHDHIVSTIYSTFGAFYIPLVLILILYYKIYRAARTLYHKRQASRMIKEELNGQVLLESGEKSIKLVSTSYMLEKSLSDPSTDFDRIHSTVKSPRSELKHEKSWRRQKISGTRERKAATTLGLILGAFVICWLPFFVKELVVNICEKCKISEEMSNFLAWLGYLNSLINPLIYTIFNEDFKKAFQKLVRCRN

[5] = molecular target: T4, REC17 serotonin receptor (5-HT5α) (Rattus norvegicus, UniProt P35364); assay: [125I]-LSD competition binding to membranes of CosM6 cells expressing REC17
T4 construct: contains an ORF encoding 357 amino acids; expressed in transfected cells; host or cells: CosM6 (subclone of COS-7), transient, vector pCMV4
T4 sequence (P35364 whole entry): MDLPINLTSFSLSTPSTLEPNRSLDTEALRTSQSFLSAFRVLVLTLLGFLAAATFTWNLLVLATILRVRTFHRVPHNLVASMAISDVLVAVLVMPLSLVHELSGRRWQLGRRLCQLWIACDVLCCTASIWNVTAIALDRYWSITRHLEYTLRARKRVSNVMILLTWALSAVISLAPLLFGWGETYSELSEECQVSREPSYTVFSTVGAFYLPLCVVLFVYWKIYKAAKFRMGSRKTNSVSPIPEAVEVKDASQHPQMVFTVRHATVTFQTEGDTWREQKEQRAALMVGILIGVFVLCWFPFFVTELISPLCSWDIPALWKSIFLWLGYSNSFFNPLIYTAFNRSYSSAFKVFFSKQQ

[6] = CosM6 membranes, 1 nM [125I]-LSD, 60 min 37° C., read-out: IC50 for competition with 125I-LSD, Rec20
[7] = CosM6 membranes, 1 nM [125I]-LSD, 60 min 37° C., read-out: IC50 for competition with 125I-LSD, MR77

Row | Structure (SMILES) | IC50 [2, 6] [nM] | IC50 [3] [nM] | IC50 [4, 7] [nM] | IC50 [5] [nM] | sensitivity of MR22 to the ligand (in words) [3] | also measured
1 | Cc1nc2sccn2c(=O)c1CCN1CCC(=C(c2ccc(F)cc2)c2ccc(F)cc2)CC1 [Ritanserin] | 60 |  |  |  |  | effect of antagonist on the 8-OH-DPAT-dependent phase shift [1]: blocks
2 | O=C(c1ccc(F)cc1)C1CCN(CCn2c(=O)[nH]c3ccccc3c2=O)CC1 [ketanserin] |  |  |  |  |  | sensitivity of radiolabeled LSD binding to REC20 to the ligand (in words) [2]: sensitive
3 | CN1C[C@H](CNC(=O)OCc2ccccc2)C[C@@H]2c3cccc4c3c(cn4C)C[C@H]21 [Metergoline] | 17 | > 1000 | 535 | > 1000 |  | 
4 | COC(=O)[C@@H]1[C@H]2C[C@H]3c4[nH]c5ccccc5c4CCN3C[C@@H]2CC[C@@H]1O [Yohimbine] |  |  | 570 |  |  | 
5 | CSc1ccc2c(c1)C(N1CCN(C)CC1)Cc1ccccc1S2 (stereo not drawn) [Methiothepin] |  |  | > 1000 | 45 | sensitive | sensitivity of REC17 to the ligand (in words) [5]: sensitive
6 | CC(C)NCC(O)COc1cccc2[nH]ccc12 (stereo not drawn) [Pindolol] | > 1000 |  |  |  |  | effect of antagonist on the 8-OH-DPAT-dependent phase shift [1]: has no effect
7 | CNS(=O)(=O)Cc1ccc2[nH]cc(CCN(C)C)c2c1 [Sumatriptan] | > 1000 | > 1000 |  | > 1000 | insensitive | sensitivity of radiolabeled LSD binding to MR77 to the ligand (in words) [4]: sensitive; sensitivity of REC17 to the ligand (in words) [5]: insensitive
8 | NCCc1c[nH]c2ccc(O)cc12 [Ligand 5-HT, 5-hydroxytryptamine] |  |  | 70 | 380 |  | 
9 | CCCN(CCC)C1CCc2cccc(O)c2C1 (stereo not drawn) [Ligand 8-OH-DPAT] | 97 | > 1000 |  | > 1000 | insensitive | phase advance in the circadian rhythm of spontaneous neuronal activity in the SCN ([1]; slice bath treatment for 1 hour): 2 to 3 h; sensitivity of radiolabeled LSD binding to MR77 to the ligand (in words) [4]: insenstive; sensitivity of radiolabeled LSD binding to REC20 to the ligand (in words) [2]: displace; sensitivity of REC17 to the ligand (in words) [5]: insensitive
10 | CN1C[C@@H](NS(=O)(=O)N(C)C)C[C@@H]2c3cccc4c3c(cn4C)C[C@H]21 [Mesulergine] | 17 | > 1000 | > 1000 | > 1000 |  | 
11 | CC[C@@H](CO)NC(=O)[C@@H]1C=C2c3cccc4c3c(cn4C)C[C@H]2N(C)C1 [Methysergide] |  | > 1000 |  | 310 |  | IC50 [4]: 14 nM; IC50 [2]: 32 nM
12 | CN1C[C@H](C(=O)N[C@]2(C)O[C@@]3(O)[C@@H]4CCCN4C(=O)[C@H](Cc4ccccc4)N3C2=O)C=C2c3cccc4[nH]cc(c34)C[C@H]21 [Ergotamine] |  | 22 |  |  | sensitive | IC50 [4]: 55 nM; IC50 [2]: 33 nM
13 | NCCc1c[nH]c2ccc(C(N)=O)cc12 [Ligand 5-CT, 5-carboxyamidotryptamine] | 0.8 | 285 | > 1000 | 20.4 | sensitive | sensitivity of radiolabeled LSD binding to MR77 to the ligand (in words) [4]: insenstive; sensitivity of radiolabeled LSD binding to REC20 to the ligand (in words) [2]: displace; sensitivity of REC17 to the ligand (in words) [5]: sensitive
14 | CCN(CC)C(=O)[C@@H]1C=C2c3cccc4[nH]c([125I])c(c34)C[C@H]2N(C)C1 [[^125 I]-LSD] |  |  |  |  |  | binding of [125I]-LSD to MR22 broken cell preparations (in words) ([3]; transfected CosM6 cells): saturable binding; binding of [125I]-LSD to MR77 broken cell preparations (in words) ([4]; transfected CosM6 cells): saturable binding; binding of [125I]-LSD to REC20 broken cell preparations (in words) ([2]; transfected CosM6 cells): saturable binding; binding of [125I]-LSD to REC17 broken cell preparations (in words) ([5]; transfected CosM6 cells): saturable binding
